Assay results taken from US20250019387A1 (Frontier Medicines Corporation, priority 0001, published 2025).

Biological target: KRAS G12C and cRAF (Ras-binding domain) interaction (Homo sapiens (Human), UniProt P01116, C118S/C51S/C80L/G12C)
Assay: Inhibition of KRAS G12C and cRAF binding (AlphaScreen)
Conditions: additional exemplary compounds; KRAS G12C and cRAF binding; read-out: RAF1 RBD IC50
Procedure: Compounds were diluted in 100% DMSO and each compound concentration was spotted at 200 nl/well onto low volume, white 384 well plates. […] Plates were incubated for 19-20 hours. A mixture of RBD and the AlphaScreen streptavidin donor and glutathione acceptor beads diluted in 25 mM Hepes, pH 7.4, 150 mM NaCl, 5 mM MgCl2, 0.01% TritonX-100 and 2% DMSO was then added at 10 ul/well and incubated for 60-90 minutes before the samples were read for emission at 570 nm after excitation of the donor beads at 680 nm. All incubations were performed at room temperature. […] IC50s were determined using nonlinear regression fit of [inhibitor]vs. response (4 parameters). […]

Chain of KRAS G12C and cRAF (Ras-binding domain) interaction (P01116 other isoform, or with tags, fused parts or gaps G12C/C51S/C80L/C118S): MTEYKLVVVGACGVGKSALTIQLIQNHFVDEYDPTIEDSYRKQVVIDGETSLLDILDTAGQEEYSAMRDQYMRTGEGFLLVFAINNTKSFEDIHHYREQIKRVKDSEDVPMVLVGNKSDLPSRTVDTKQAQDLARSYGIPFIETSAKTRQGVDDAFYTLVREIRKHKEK

Compound	IC50 [nM]
CN(C)C/C=C/C(=O)N1CC[C@@H](N(C)c2nc(OC[C@@]34CCCN3C[C@H](F)C4)nc3c2CCN(c2cccc4ccc(F)c(Cl)c24)C3)C1	10 to 100
C=CC(=O)N1C[C@H](N(C)c2nc(OCC34CCCN3CCC4)nc3c2CCN(c2cccc4cccc(Cl)c24)C3)C[C@H]1C	> 500
C=CC(=O)N1CCC[C@@H](N(C)c2nc(OCC34CCCN3CCC4)nc3c(F)c(-c4cccc5cccc(Cl)c45)ncc23)C1	> 500
C=CC(=O)N1CC(N(C)c2nc(OCC34CCCN3CCC4)nc3c2CCN(c2cccc4cccc(Cl)c24)C3)C1	> 500
C/C=C/C(=O)CCN(C)c1nc(OC[C@@H]2CCCN2C)nc2c1CCN(c1cccc3ccccc13)C2	> 500
C=CC(=O)N1CC(N(C)c2nc(OC[C@@]34CCCN3C[C@H](F)C4)nc3c2CCN(c2cccc4cccc(Cl)c24)C3)C1	> 500
C=CC(=O)C[C@H](C)N(C)c1nc(OC[C@@H]2CCCN2C)nc2c1CCN(c1cccc3ccccc13)C2	> 500
C=CC(=O)N1CC(CN(C)c2nc(OCC34CCCN3CCC4)nc3c(F)c(-c4cccc5cccc(Cl)c45)ncc23)C1	10 to 100
C=CC(=O)[C@H](C)CN(C)c1nc(OC[C@@H]2CCCN2C)nc2c1CCN(c1cccc3ccccc13)C2	> 500
CN(c1nc(OCC23CCCN2CCC3)nc2c1CCN(c1cccc3cccc(Cl)c13)C2)[C@@H]1CCN(C(=O)/C=C/C2(C)COC2)C1	> 500
C=CC(=O)[C@@H](C)CN(C)c1nc(OC[C@@H]2CCCN2C)nc2c1CCN(c1cccc3ccccc13)C2	10 to 100
CCN(CC)C/C=C/S(=O)(=O)CCN(C)c1nc(OC[C@@H]2CCCN2C)nc2c(F)c(-c3cccc4cccc(Cl)c34)ncc12	10 to 100
CCOC/C=C/S(=O)(=O)CCN(C)c1nc(OC[C@@H]2CCCN2C)nc2c(F)c(-c3cccc4cccc(Cl)c34)ncc12	> 500
CCN(CC)C/C=C/S(=O)(=O)CCN(C)c1nc(OC[C@@]23CCCN2C[C@H](F)C3)nc2c1CCN(c1cccc3cccc(Cl)c13)C2	< 10
C=CC(=O)N1C[C@H](N(C)c2nc(OCC34CCCN3CCC4)nc3c(F)c(-c4cccc5cccc(Cl)c45)ncc23)C[C@H]1C	> 500
C=CC(=O)N1CCC[C@@H](N(C)c2nc(OCC34CCCN3CCC4)nc3c2CCN(c2cccc4cccc(Cl)c24)C3)C1	> 500
C=CC(=O)N1C[C@H](N(C)c2nc(OCC34CCCN3CCC4)nc3c2CCN(c2cccc4cccc(Cl)c24)C3)[C@H]1C	> 500
C=CC(=O)N1C[C@H](N(C)c2nc(OCC34CCCN3CCC4)nc3c(F)c(-c4cccc5cccc(Cl)c45)ncc23)[C@H]1C	> 500
CN(CCS(=O)(=O)/C=C/CC1CC1)c1nc(OCC23CCCN2CCC3)nc2c1CCN(c1cccc3cccc(Cl)c13)C2	> 500
CN(CCS(=O)(=O)/C=C/CC1CC1)c1nc(OC[C@@H]2CCCN2C)nc2c(F)c(-c3cccc4cccc(Cl)c34)ncc12	> 500
C=CC(=O)N1CCC(N(C)c2nc(OCC34CCCN3CCC4)nc3c2CCN(c2cccc4cccc(Cl)c24)C3)C1CC#N (centres unmarked)	> 500
C=CC(=O)N1C[C@H](N(C)c2nc(OCC34CCCN3CCC4)nc3c2CCN(c2cccc4cccc(Cl)c24)C3)CC1C#N (some centres unmarked)	100 to 500
C=CC(=O)N1CC[C@@H](N(C)c2nc(OCC34CCCN3CCC4)nc3c(F)c(-c4cccc5ccc(F)c(Cl)c45)ncc23)C1	10 to 100
C=CC(=O)N1CC[C@@H](N(C)c2nc(OC[C@@]34CCCN3C[C@H](F)C4)nc3c(F)c(-c4cccc5ccc(F)c(Cl)c45)ncc23)C1	10 to 100
C=CC(=O)N1C[C@@H](N(C)c2nc(OCC34CCCN3CCC4)nc3c(F)c(-c4cccc5cccc(Cl)c45)ncc23)C[C@@H]1CC#N	> 500

Compound	IC50 [nM]
CN(C)C/C=C/C(=O)N1CC[C@@H](N(C)c2nc(OC[C@@]34CCCN3C[C@H](F)C4)nc3c(F)c(-c4cccc5ccc(F)c(Cl)c45)ncc23)C1	10 to 100
C=CC(=O)N1CC[C@H]2[C@@H]1CCN2c1nc(OCC23CCCN2CCC3)nc2c1CCN(c1cccc3cccc(Cl)c13)C2	> 500
C=CC(=O)N1CC[C@H]2[C@@H]1CCN2c1nc(OC[C@@]23CCCN2C[C@H](F)C3)nc2c1CCN(c1cccc3cccc(Cl)c13)C2	> 500
C=CC(=O)N1CC[C@H]2[C@H]1CCN2c1nc(OCC23CCCN2CCC3)nc2c1CCN(c1cccc3cccc(Cl)c13)C2	> 500
C=CC(=O)N1CC[C@H]2[C@H]1CCN2c1nc(OC[C@@]23CCCN2C[C@H](F)C3)nc2c1CCN(c1cccc3cccc(Cl)c13)C2	> 500
C=CS(=O)(=O)[C@H]1CC[C@@H](N(C)c2nc(OCC34CCCN3CCC4)nc3c2CCN(c2cccc4cccc(Cl)c24)C3)C1	10 to 100
C=CC(=O)CCN(C)c1nc(OCC2CCN2C)nc2c1CCN(c1cccc3cccc(Cl)c13)C2 (centres unmarked)	10 to 100
C=CS(=O)(=O)[C@@H]1CC[C@H](N(C)c2nc(OCC34CCCN3CCC4)nc3c2CCN(c2cccc4cccc(Cl)c24)C3)C1	> 500
CN(c1nc(OCC23CCCN2CCC3)nc2c(F)c(-c3cccc4ccc(F)c(Cl)c34)ncc12)[C@@H]1CCN(C#N)C1	10 to 100
CN(C)C/C=C/C(=O)N1CC[C@@H](N(C)c2nc(OC[C@@H]3CCCN3C)nc3c(F)c(-c4cccc5ccc(F)c(Cl)c45)ncc23)C1	10 to 100
CN(C)C/C=C/C(=O)N1CC[C@@H](N(C)c2nc(OCC34CCCN3CCC4)nc3c(F)c(-c4cccc5ccc(F)c(Cl)c45)ncc23)C1	10 to 100
C=CC(=O)N1C[C@H](N(C)c2nc(OCC34CCCN3CCC4)nc3c2CCN(c2cccc4cccc(Cl)c24)C3)C[C@@H]1C#N	100 to 500
C=CC(=O)N1C[C@H](N(C)c2nc(OCC34CCCN3CCC4)nc3c2CCN(c2cccc4cccc(Cl)c24)C3)C[C@H]1C#N	10 to 100
C=CC(=O)N1CC(CN(C)c2nc(OC[C@@]34CCCN3C[C@H](F)C4)nc3c(F)c(-c4cccc5ccc(F)c(Cl)c45)ncc23)C1	10 to 100
C=CC(=O)N1[C@H]2CC[C@@H]1[C@@H](N(C)c1nc(OC[C@@]34CCCN3C[C@H](F)C4)nc3c1CCN(c1cccc4cccc(Cl)c14)C3)C2	> 500
N#CN1CC[C@H]2[C@H]1CCN2c1nc(OC[C@@]23CCCN2C[C@H](F)C3)nc2c(F)c(-c3cccc4cccc(Cl)c34)ncc12	100 to 500
N#CN1CC[C@H]2[C@@H]1CCN2c1nc(OC[C@@]23CCCN2C[C@H](F)C3)nc2c(F)c(-c3cccc4cccc(Cl)c34)ncc12	> 500
CN1CCC[C@H]1COc1nc(N(C)[C@@H]2CCN(C#N)C2)c2cnc(-c3cccc4ccc(F)c(Cl)c34)c(F)c2n1	100 to 500
CN(C)C/C=C/C(=O)N1CC(CN(C)c2nc(OCC34CCCN3CCC4)nc3c(F)c(-c4cccc5ccc(F)c(Cl)c45)ncc23)C1	10 to 100
CN(C)C/C=C/S(=O)(=O)C1CCCN(c2nc(OCC34CCCN3CCC4)nc3c2CCN(c2cccc4cccc(Cl)c24)C3)C1 (centres unmarked)	10 to 100
C=CC(=O)N1C[C@@H](N(C)c2nc(OC[C@@H]3CCCN3C)nc3c(F)c(-c4cccc5cccc(Cl)c45)ncc23)C[C@@H]1CC#N	> 500
C=CC(=O)N1CC[C@@H](N(C)c2nc(OC[C@@]34CCCN3C[C@H](F)C4)nc3c2CCN(c2cc(O)cc4ccccc24)C3)C1	100 to 500
C=CC(=O)N1CCC(N(c2nc(OCC34CCCN3CCC4)nc3c(F)c(-c4cccc5cccc(Cl)c45)ncc23)C2CC2)C1 (centres unmarked)	> 500
C=CC(=O)N1CC(CN(C)c2nc(OC[C@]34CCCN3C[C@@H](F)C4)nc3c2CCN(c2cccc4cccc(Cl)c24)C3)C1	100 to 500
C=CC(=O)N1CC(CN(C)c2nc(OC[C@]34CCCN3C[C@@H](F)C4)nc3c(F)c(-c4cccc5cccc(Cl)c45)ncc23)C1	100 to 500
